The source of these data is patent US20030162777A1, “Novel N-acylated heterocycles” (Recordati S.A., priority 2001, published 2003).

The target of one assay is T1, 5-HT1A receptors (Rattus norvegicus, UniProt P19327).
T1 construct: from tissue; host or cells: whole animal: male Sprague-Dawley rats (post-synaptic 5-HT1A receptors)
T1 sequence (P19327 1-422): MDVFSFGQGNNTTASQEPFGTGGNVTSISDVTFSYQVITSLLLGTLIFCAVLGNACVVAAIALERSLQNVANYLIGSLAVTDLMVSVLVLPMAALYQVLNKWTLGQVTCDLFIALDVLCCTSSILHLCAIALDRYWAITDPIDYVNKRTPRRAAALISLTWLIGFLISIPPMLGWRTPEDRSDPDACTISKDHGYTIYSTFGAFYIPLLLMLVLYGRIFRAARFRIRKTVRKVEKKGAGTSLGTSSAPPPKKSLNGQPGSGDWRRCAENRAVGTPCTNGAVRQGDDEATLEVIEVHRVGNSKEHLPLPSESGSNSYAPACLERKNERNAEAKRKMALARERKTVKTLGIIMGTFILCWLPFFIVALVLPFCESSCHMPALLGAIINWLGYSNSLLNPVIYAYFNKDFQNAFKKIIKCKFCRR
The assay can be described thus: Inhibition of stereotypy (rhythmic forepaw treading) induced by 8-OH-DPAT in rats (post-synaptic antagonism). In kind it is in vivo. The following applies: 1 mg/kg p.o.; for inhibition at 1 mg/kg: rat. On the procedure:
The inhibitory effect of 5-HT1A-receptor antagonists on stereotyped forepaw treading induced in rats by subcutaneous injection of 8-OH-DPAT was evaluated by the method of Tricklebank (Tricklebanket al., Eur. J. Pharmacol., 117: 15, 1985) with minor modifications as described below.
Male Sprague-Dawley rats [Crl: CD° (SD) BR] weighing 150-175 g from Charles River Italia were used. The animals were housed with free access to food and water and maintained on a forced 12-hour-light/12-hour-dark cycle at 22-24° C. of temperature. On the day of the experiment, the rats were placed singly in clear plastic containers, 10-15 minutes before administration of the vehicle or compounds to be tested. For evaluation of antagonistic activity after oral administration, the compounds were administered 0.5, 1 and 4 hours before induction of stereotypy by 8-OH-DPAT (1 mg/kg subcutaneously). Observation sessions lasted 30 seconds and began 3 minutes after 8-OH-DPAT treatment and were repeated every 3 minutes over a period of 15 minutes.
The appearance of the symptom induced by postsynaptic stimulation of 5-HT1A receptors was noted, and the intensity was scored using an intensity scale in which: 0=absent, 1=equivocal, 2=present and 3=intense. Behavioural scores for treated rats were accumulated throughout the observation time (5 observation periods) and expressed as mean values of 4 rats/dose. Change in mean values of treated animals in comparison with control (vehicle) group, expressed as per-cent inhibition, was used in order to quantify the antagonistic activity.

For assay [1], the target named is T2, human 5HT1A-serotonergic receptor (Homo sapiens, UniProt P08908).
T2 construct: expressed in transfected cells; host or cells: HeLa (human cell line), stably transfected; cell membranes used
T2 sequence (P08908 1-422): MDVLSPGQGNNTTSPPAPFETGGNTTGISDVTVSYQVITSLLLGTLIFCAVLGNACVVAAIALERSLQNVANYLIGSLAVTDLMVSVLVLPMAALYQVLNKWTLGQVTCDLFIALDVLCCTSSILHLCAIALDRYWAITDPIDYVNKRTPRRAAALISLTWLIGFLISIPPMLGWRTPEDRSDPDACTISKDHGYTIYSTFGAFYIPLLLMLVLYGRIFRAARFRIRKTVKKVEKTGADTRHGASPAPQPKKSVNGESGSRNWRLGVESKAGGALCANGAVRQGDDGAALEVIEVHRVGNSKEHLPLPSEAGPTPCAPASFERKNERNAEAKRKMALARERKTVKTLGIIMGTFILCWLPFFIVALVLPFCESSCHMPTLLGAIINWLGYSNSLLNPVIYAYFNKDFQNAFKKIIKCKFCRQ
The assay can be described thus: Radioligand binding to recombinant 5-HT1A receptors. The following applies: [3H]8-OH-DPAT 1 nM, membranes of HeLa cells with human 5-HT1A receptor; Ki from IC50 by Cheng & Prusoff; read-out: Binding affinity for 5HT1A receptors, Ki. The procedure, abridged: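 Displacement of 1 nM [3H]8-OH-DPAT (30 min, 30 °C, Tris-HCl pH 7.4 with MgCl2 and pargyline) from recombinant human 5-HT1A in transfected HeLa membranes, stopped by filtration. Specific binding defined against 10 μM 5-HT; IC50 by nonlinear fitting, then Ki by Cheng–Prusoff.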

A further assay concerns anaesthetised rats. The assay can be described thus: Effects on rhythmic bladder-voiding contractions induced by bladder filling in anaesthetised rats. The following applies: for ED50: Rattus norvegicus; for ED50 / ED10 min (extrapolated dose inducing 10 minutes of disappearance of the contractions): intravenous administration. The class given is in vivo, rat. The procedure: Female Sprague-Dawley rats weighing 225-275 g (Crl: CDo Br, Charles River Italia) were used. The animals were housed with free access to food and water and maintained on a forced 12-hour alternating light-dark cycle at 22-24° C. for at least one week, except during the experiment. The activity on rhythmic bladder voiding contractions was evaluated according to the method of Dray (Dray J., Pharmacol. Methods, 13:157, 1985), with some modifications as in Guarneri (Guarneri, Pharmacol. Res. 27:173, 1993). Briefly, the rats were anaesthetised by subcutaneous injection of 1.25 g/kg (5 ml/kg) urethane, after which the urinary bladder was catheterised via the urethra using PE 50 polyethylene tubing filled with physiological saline. The catheter was tied in place with a ligature around the external urethral orifice and was connected to conventional pressure transducers (Statham P23 ID/P23 XL). […] The bladder was then filled via the recording catheter by incremental volumes of warm (37° C.) saline until reflex bladder-voiding contractions occurred (usually 0.8-1.5 ml). For intravenous injection of bioactive compounds, PE 50 polyethylene tubing filled with physiological saline was inserted into the jugular vein.
From the cystometrogram, the number of contractions recorded 15 minutes before (basal values) and after treatment, as well as the mean amplitude of these contractions (mean height of the peaks in mmHg), was evaluated.
Since most compounds produced an effect that was relatively rapid in onset and led to a complete cessation of bladder contractions, bioactivity was conveniently estimated by measuring the duration of bladder quiescence (i.e. the length of the time during which no contractions occurred). The number of tested animals showing a reduction in the number of contractions higher than 30% of that observed in the basal period was recorded too.
The extrapolated doses which induced a reduction in the number of contractions greater than 30% in 50% of the treated rats (ED50) were evaluated by the method of Bliss (Bliss C. I., Quart J. Pharm. Pharmacol. 11, 192-216, 1938).

Another assay has as its system conscious rats. In words: Effect on cystometric parameters in conscious rats after oral administration. In kind it is in vivo, rat. The following applies: 3 mg/kg p.o., 1-5 h after treatment, versus vehicle. The procedure:
Male Sprague-Dawley rats [Crl: CD° (SD) BR] of 300-400 g supplied by Charles River Italia were used. The animals were housed with free access to food and water and maintained on a forced 12-hour-light/12-hour-dark cycle at 22-24° C. of temperature, except during the experiment. To quantify urodynamic parameters in conscious rats, cystometrographic studies were performed according to the procedure previously reported (Guarneri et al., Pharmacol. Res. 24: 175, 1991).
Briefly, the rats were anaesthetised by intraperitoneal administration of 3 ml/kg of Equithensin solution (pentobarbital 30 mg/kg and chloral hydrate 125 mg/kg) and placed in a supine position. An approximately-10-mm-long midline incision was made in the shaved and cleaned abdominal wall. The urinary bladder was gently freed from adhering tissues, emptied and then cannulated via an incision in the bladder body, using a polyethylene cannula (0.58-mm internal diameter, 0.96-mm external diameter) which was permanently sutured with silk thread. The cannula was exteriorised through a subcutaneous tunnel in the retroscapular area, where it was connected to a plastic adapter in order to avoid the risk of removal by the animal. For drug testing, the rats were utilised one day after implantation.
On the day of the experiment, the rats were placed in modified Bollman cages, i.e. restraining cages that were large enough to permit the rats to adopt a normal crouched posture, but narrow enough to prevent turning around. […] The intraluminal-pressure signal during infusion of saline into the bladder was continuously recorded on a polygraph (Rectigraph-8K San-ei with BM614/2 amplifier from Biomedica Mangoni) and, from the cystometrogram, two urodynamic parameters were evaluated: bladder volume capacity (BVC) and micturition pressure (MP). […] Basal BVC and MP values were evaluated as mean of the values observed in the cystometrograms recorded in an initial period of 30-60 minutes. […] The bladder infusion restarted and changes in BVC and MP were evaluated from the mean values obtained in the cystometrograms observed during 1, 2, 3, 4 and 5 hours after treatment. […]
All data were expressed as mean±standard error. Time-course data were analysed by S.A.S./STAT software, version 6.12. The difference between vehicle and active-treatment effect was evaluated by: General Linear Model Procedure—Repeated Measures Analysis of Variance: Univariate test of Hypotheses for within Subject Effects—Analysis of Variance of Contrast Variables. […]

Setting [2] is: urethane-anaesthetised rats, read-out: ED50 frequency (extrapolated dose inducing a reduction of the number of contractions >30% in 50% of treated rats).

Like-named read-outs stand apart in the source and are kept apart here.

`O=C(C1CCCCC1)N1c2ccccc2CCC1CN1CCN(c2cccc3[nH]ccc23)CC1` (single isomer, unassigned; (+)) [Example (+)-1, (+)-1-(1-Cyclohexanecarbonyl-1,2,3,4-tetrahydroquinoline-2-ylmethyl)-4-(4-indolyl)piperazine]: the “post-synaptic 5-HT1A-receptor antagonist activity (in words)” value on 5-HT1A receptors (rats) was “significant and complete inhibition of the symptom up to 4 hours after administration”. Further, the results for the inhibition at 1 mg/kg against 5-HT1A receptors (0.5 h before 8-OH-DPAT (1 mg/kg s.c.)), against 5-HT1A receptors (1 h before 8-OH-DPAT (1 mg/kg s.c.)) and at 5-HT1A receptors (4 h before 8-OH-DPAT (1 mg/kg s.c.)) were 100%, 100% and 98%, respectively. Moreover, in assay [1], the Ki came to 0.2 nM. The ED50 in the assay with anaesthetised rats (setting [2]) was 0.024 mg/kg. Further, the “ED10 min (extrapolated dose inducing 10 minutes of disappearance of the contractions)” value (from here on “ED10 min”) in the assay on anaesthetised rats (urethane-anaesthetised rats) was 0.072 mg/kg.
On to `COc1ccccc1N1CCN(CC2CCc3ccccc3N2C(=O)C2CCCCC2)CC1` (stereo not shown) [Example 2, 1-(1-Cyclohexanecarbonyl-1,2,3,4-tetrahydroquinoline-2-ylmethyl)-4-(2-methoxyphenyl)piperazine], for which the Ki in assay [1] turned out to be 0.3 nM. In the assay on anaesthetised rats (setting [2]), the ED50 was 0.172 mg/kg. For the same molecule, the “ED10 min” value in the assay on anaesthetised rats (urethane-anaesthetised rats) was 0.383 mg/kg.
Taken in the same sequence, the figures for `COc1ccccc1N1CCN(CCC2CCc3ccccc3N2C(=O)C2CCCCC2)CC1` (stereo not shown) [Example 3, 1-[2-(1-Cyclohexanecarbonyl-1,2,3,4-tetrahydroquinoline-2-yl)ethyl]-4-(2-methoxyphenyl)piperazine] were 8.4 nM, 0.02 mg/kg and 0.08 mg/kg.
Turning to `CCN(CC)CC#CCOC(=O)C(O)(c1ccccc1)C1CCCCC1` (stereo not shown) [Oxybutynin, oxybutynin, reference compound], the ED50 with anaesthetised rats (setting [2]) is > 10 mg/kg. Further, in the assay on anaesthetised rats (n.a. = not active, no significant reduction of the height of the peaks, read-out: ED50 amplitude (extrapolated dose inducing a 30% reduction of amplitude of the contractions in 50% of treated rats)), the ED50 was 0.24 mg/kg. In addition, the “ED10 min” value in the assay on anaesthetised rats (urethane-anaesthetised rats) is 7.77 mg/kg. In the assay on anaesthetised rats (intravenous, anaesthetised rats), the “cessation of bladder contractions (in words)” value is recorded as “does not cause cessation of bladder contractions”. In the assay with conscious rats, the “effect on bladder volume capacity (BVC)” value is listed as “slight, not-significant increase” and the “effect on micturition pressure (MP)” value is listed as “greatly reduced”.

For orientation: inhibition means how much of the control response was suppressed. The Ki is a dissociation constant, usually derived from enzyme kinetics or from competition with a known ligand. As usually defined, the ED50 is the dose at which the effect has come halfway, by size or by number of responders.
